# From US11813235B2, “Guanfacine as an anti-virulence agent” (priority 2019, dated 2023)
# Like-named read-outs stand apart in the source and are kept apart here. *1 amine or outer side, *2 acyl side, *3 side chain or, on linkers, in order; H or OH if unused. Where a SMILES comes first, the peptide text is derived from it. Bridges are numbered along the chain shown (N, C = ends). [ ]: non-standard residue; d: D form. The star is where a group is joined. hTyr(3S-OH,4S-OH,3'-OSO3H) = N[C@H](C(=O)O)[C@H](O)[C@@H](O)c1ccc(O)c(OS(=O)(=O)O)c1; Orn(4R-OH,5R-OH) = O=C([C@H](C[C@@H](O)[C@@H](O)N[*:3])N[*:1])[*:2]; Pro(3S-OH,4S-Me) = C[C@H]1CN[C@H](C(=O)O)[C@H]1O; X1 = CCCCCOc1ccc(-c2cc(-c3ccc(C(=O)*)cc3)no2)cc1; Gln(3R-OH) = NC(=O)C[C@@H](O)[C@H](N)C(=O)O; Hyp = O=C(O)[C@@H]1C[C@@H](O)CN1
# Legend:
# P. aeruginosa [1] = type: cell-based, Pseudomonas aeruginosa
# Experimental: Growth and high-throughput LacZ assays were optimized in a 384-well plate format using three reporter strains In order to identify down-regulators of virulence, rather than growth-inhibitors of P. aeruginosa, special care was taken to eliminate compounds that (i) interfered with the LacZ assay and (ii) affected P. aeruginosa growth. […] Growth-inhibition assays using the small molecule library were performed by monitoring optical density at 600 nm (OD600 nm).
# (§6) In various examples, bacterial growth was carried out in LB supplemented with 50 mM Mops, pH 7.0 (hereafter, LB-Mops). To commence a screen, a P. aeruginosa reporter strain from an LB agar plate was used to inoculate 5 mL of LB-Mops medium in a sterile 14-mL bacterial culture tube. The culture was grown for 4 h at 30° C./250 rpm. After 4 h, its optical density (OD600 nm) was determined on a Cary 60 UV-visible spectrophotometer (Agilent). The culture was diluted into 100 mL of LB-Mops to give a final OD600 nm of 0.05. Subsequently a volume of 50 μL was dispensed into each of six sterile, 384 well plates (Corning) using a Multiflo Microplate Dispenser (Biotek). Candidate elicitors were added to the plates using a CyBi-Well automated liquid transfer robot (CyBio). Each well was supplemented with 0.2 μL of a compound from the Enzo Scientific FDA approved drug library, which comprises 770 molecules. The compounds were dispensed into columns 3 through 22 on each plate. Columns 2 and 23 contained the negative control (the reporter strain being tested in the absence of any compounds), and columns 1 and 24 contained the positive control (e.g., strain phzB2-lacZ). Each compound was tested in duplicate, using three 384-well plates per set. Each plate was covered with a Breathe-Easy sealing membrane (Sigma) and cultured at 30° C./250 rpm in a Multitron Shaker (ATR) equipped with green sealing tray. To maintain constant humidity, several 1-L Erlenmeyer flasks containing 200 mL of sterile water were also placed inside the shaker. After 12 h, the plates were removed from the shaker. The β-Glo reagent (Promega) was used to monitor LacZ activity. The reagent was diluted 3:1 with water. Then each well was supplemented with 15 μL of the diluted β-Glo reagent using the Multiflo automated dispenser, manually shaken to mix, and incubated in the dark at room temperature for 10 min. Total end-point luminescence was then determined on a Synergy H1MF plate reader (Biotek).
# [2] = system: virulence factor expression (seven lacZ reporter strains); type: cell-based, Pseudomonas aeruginosa
# Source text: Seven reporter strains from the sequence-verified transposon mutant library generated by Manoil and colleagues were identified, in which transposons carrying a promoterless lacZ reporter were inserted into the genome of P. aeruginosa. The strains selected carried an in-frame lacZ reporter in aprD (alkaline protease), pqsA (PQS biosynthesis), hcnB (HCN biosynthesis), algK (alginate biosynthesis), phzB2 and phzF1 (phenazine biosynthesis from two different gene clusters), and plcH (phospholipase C). […] By carrying out an ex vivo LacZ assay, all LacZ assay inhibitors in a library of small molecules were identified. Growth-inhibition assays using the small molecule library were performed by monitoring optical density at 600 nm (OD600 nm).
# After a defined growth period, the expression of each of the seven reporter strains was determined using high-throughput LacZ assays. The LacZ activity was normalized relative to the negative control. The log10 of the fold-change for each of the seven strains were combined and colorized to produce an anti-virulence heat-map.
# as §6
# phzF1-lacZ = assay: microbe, parasite or virus in culture; type: cell-based
# [3] = system: P. aeruginosa phzF1-lacZ strain; assay: Dose-dependent growth inhibition of phzF1-lacZ strain by antibiotics; type: cell-based
# P. aeruginosa [4] = assay: Growth curve of P. aeruginosa in absence and presence of guanfacine; type: cell-based, Pseudomonas aeruginosa; details: 10, 20, 40 and 80 μM guanfacine
# Experimental: FIG. 2 is a graph showing the growth curve of P. aeruginosa in the absence (DMSO) and presence of guanfacine in various concentrations (10 μM, 20 μM, 40 μM, and 80 μM).
# [5] = system: seven virulence genes (aprD, pqsA, hcnB, algK, phzB2, phzF1, plcH lacZ reporters); assay: LacZ assay in flask cultures, seven virulence reporter strains; type: cell-based, Pseudomonas aeruginosa; details: relative to untreated control
# Source text: FIG. 3A is a graph showing the transcriptional down-regulation of seven virulence genes by guanfacine relative to an untreated control.
# The effect of guanfacine on the expression of virulence factors was verified in flask cultures. […].
# In one example, reporter genes for the various virulence factors encoded in the P. aeruginosa genome were selected. Seven reporter strains from the sequence-verified transposon mutant library generated by Manoil and colleagues were identified, in which transposons carrying a promoterless lacZ reporter were inserted into the genome of P. aeruginosa. The strains selected carried an in-frame lacZ reporter in aprD (alkaline protease), pqsA (PQS biosynthesis), hcnB (HCN biosynthesis), algK (alginate biosynthesis), phzB2 and phzF1 (phenazine biosynthesis from two different gene clusters), and plcH (phospholipase C). […]
# Assays were carried out in 50 mL Erlenmeyer flasks containing 10 mL of LB-Mops. […] After 4 h, OD600 nm was determined, and the culture subsequently diluted to an initial OD600 nm of 0.05 in a 50 mL Erlenmeyer flask. […] End-point luminescence was determined on a Biotek H1MF plate reader. To obtain IC50 values, the averaged luminescence output (used to determine LacZ activity) was plotted against the log of the concentration of the inhibitor. […]
# phzB2-lacZ = phzB2-lacZ reporter dose-response; type: cell-based; details: Pseudomonas aeruginosa, read-out: IC50, concentration at which half-maximal down-regulation was observed (phzB2 reporter)
# Experimental: FIG. 3B is a graph showing the dose-response of phzB2-lacZ as a function of guanfacine concentration.
# Assays were carried out in 50 mL Erlenmeyer flasks containing 10 mL of LB-Mops. For LacZ assays, an appropriate reporter strain from an LB agar plate was used to inoculate 5 mL of LB-Mops in a sterile 14 mL bacterial culture tube. After 4 h, OD600 nm was determined, and the culture subsequently diluted to an initial OD600 nm of 0.05 in a 50 mL Erlenmeyer flask. The compound of interest was added from stock concentrations generated in DMSO. A control containing only DMSO was also included. Assays were typically carried out in three biological replicates. A positive control culture, phzB2-lacZ in the absence of any compounds, was grown in parallel as well. The cultures were grown at 30° C./200 rpm. After 12 h, 65 μL was removed from each culture flask and dispensed into a sterile, white 96-well plate (Corning). Each well was supplemented with 35 μL of 3:1 diluted β-Glo reagent (Promega). The plate was incubated in the dark at room temperature for 10 minutes. End-point luminescence was determined on a Biotek H1MF plate reader. To obtain IC50 values, the averaged luminescence output (used to determine LacZ activity) was plotted against the log of the concentration of the inhibitor. The data were fit to a dose-response curve using GraphPad Prism software.
# pyocyanin biosynthesis = assay: Pyocyanin quantification; type: cell-based, Pseudomonas aeruginosa; details: treated vs untreated cultures, concentration-dependent
# Source text: FIG. 3C is a graph showing the dose-dependent reduction of pyocynanin biosynthesis as a function of guanfacine concentration.
# The effects of guanfacine were probed further by measuring the levels of pyocyanin, a downstream product of phenazine. Pyocyanin is the blue secondary metabolite responsible for both the toxicity and characteristic color of P. aeruginosa. […]. Without being bound to a particular theory, the likely cause of the incomplete suppression of pyocyanin synthesis is the existence of two independently-expressed copies of the phenazine biosynthetic operon. Nonetheless, the direct measurement of pyocyanin corroborates results observed with the reporter strains. The production of both phenazines and pyocyanin is known to be regulated by the las and pqs QS circuits. Specifically, in response to 3O-C12-HSL, LasR induces expression of the pqs operon and the LysR-type regulator, PqsR. The PQS/PqsR complex then activates phenazine and pyocyanin synthesis. To verify that guanfacine acts upstream of both products, levels of quinolines were directly measured. […].
# (§1) Pyocyanin quantification. Pyocyanin quantification was carried by a method adapted from Essar et al.[17] […] 120 μL of this extract was transferred to a clear 96-well plate and the OD520 nm was recorded using a plate reader. […]
# HHQ and PQS production = assay: HPLC-MS quantification of HHQ and PQS in wt P. aeruginosa; type: cell-based, Pseudomonas aeruginosa
# Experimental: FIG. 3D is a graph showing the relative quantification of HHQ and PQS produced by wt P. aeruginosa as a function of guanfacine concentration, normalized to an untreated control.
# […]. This HPLC analysis of cell-free supernatants of P. aeruginosa in the absence (solid lines) or presence (dashed lines) of 40 μM guanfacine. Peaks corresponding to HHQ and PQS are labeled, peaks of other quinolones are indicated with an asterisk.
# The effects of guanfacine were probed further by measuring the levels of pyocyanin, a downstream product of phenazine. Pyocyanin is the blue secondary metabolite responsible for both the toxicity and characteristic color of P. aeruginosa. […]. […] To verify that guanfacine acts upstream of both products, levels of quinolines were directly measured. […]
# (§2) HPLC-MS analysis. Direct detection and quantification of HHQ and PQS was carried out by growing wt P. aeruginosa under identical conditions as described above (for growth in 50 mL Erlenmeyer flasks). […] The organic layer was separated, dried completely in a speedvac concentrator, resuspended in 0.5 mL of MeOH, and analysed on an Agilent HPLC-MS consisting of a liquid autosampler, a 1260 Infinity Series HPLC system coupled to a photodiode array detector and a 6120 Series ESI mass spectrometer. […]
# pelB-lacZ = pelB-lacZ reporter dose-response; type: cell-based, Pseudomonas aeruginosa
# Source text: (§3) FIG. 3F is a graph of the dose-response of the expression of pelG and pelB, involved in biofilm production, as a function of guanfacine concentration, using the appropriate LacZ reporter strain.
# (§4) Another important virulence determinant in P. aeruginosa is biofilm formation. A cluster of genes, termed pel regulated by the las QS system, have been established as responsible for producing the biofilm matrix exopolysaccharide. Two reporter strains carrying translational lacZ fusions (pelB-lacZ and pelG-lacZ) were subjected to guanfacine dose-response analysis. […].
# (§5) Assays were carried out in 50 mL Erlenmeyer flasks containing 10 mL of LB-Mops. For LacZ assays, an appropriate reporter strain from an LB agar plate was used to inoculate 5 mL of LB-Mops in a sterile 14 mL bacterial culture tube. After 4 h, OD600 nm was determined, and the culture subsequently diluted to an initial OD600 nm of 0.05 in a 50 mL Erlenmeyer flask. The compound of interest was added from stock concentrations generated in DMSO. A control containing only DMSO was also included. Assays were typically carried out in three biological replicates. […] End-point luminescence was determined on a Biotek H1MF plate reader. To obtain IC50 values, the averaged luminescence output (used to determine LacZ activity) was plotted against the log of the concentration of the inhibitor. […]
# pelG-lacZ = pelG-lacZ reporter dose-response; type: cell-based, Pseudomonas aeruginosa
# Source text: as §3, §4, §5
# [6] = system: pmrB::Tn mutant (QseC homolog); assay: HHQ and pyocyanin production in pmrB::Tn mutant; type: cell-based, Pseudomonas aeruginosa; details: pmrB::Tn cultures supplemented with guanfacine
# Experimental: FIG. 4 is a graph of the quantification of the levels of HHQ (black bars) and pyocyanin (white bars) in guanfacine-treated and untreated cultures.
# To explore this idea, a mutant carrying a transposon insertion in pmrB (pmrB::Tn) was tested. Both wt and mutant strains were grown in the presence of guanfacine or DMSO (control), and the production of HHQ was quantified directly using HPLC-MS, while pyocyanin synthesis was assessed as previously reported. […] In the absence of the sensor His kinase, guanfacine was unable to exert its down-regulatory effect, especially with pyocyanin where significant production remained.
# as §2, §1
# [7] = relative to the untreated strain, OD600 nm after 12 h
# [8] = LacZ activity normalized to negative control, seven reporter strains
# [9] = Pseudomonas aeruginosa; read-out: EC50, concentration at which induction of phzF1-lacZ was half-maximal
# [10] = Pseudomonas aeruginosa, PHZF1LACZSTRAIN; read-out: growth-inhibitory IC50
molecule,measurement,setting,value
O=C(N[C@H](CO)[C@H](O)c1ccc([N+](=O)[O-])cc1)C(Cl)Cl [Chloramphenicol],% Growth Inhibition,P. aeruginosa [1]; [7],64%
[H]/N=C(\N/C(=N/[H])NCCCCCCNC(=N)NC(=N)Nc1ccc(Cl)cc1)Nc1ccc(Cl)cc1 [Chlorhexidine],% Growth Inhibition,P. aeruginosa [1]; [7],96%
C[C@]12CC[C@@H]3c4ccc(O)cc4CC[C@H]3[C@@H]1CC[C@@H]2O [Estradiol],% Growth Inhibition,P. aeruginosa [1]; [7],73%
CCCCCCCCc1ccc(CCC(N)(CO)CO)cc1 [Fingolimod],% Growth Inhibition,P. aeruginosa [1]; [7],76%
"CCCCCOc1ccc(-c2cc(-c3ccc(C(=O)N[C@H]4C[C@@H](O)[C@@H](O)NC(=O)[C@@H]5[C@@H](O)[C@@H](C)CN5C(=O)[C@H]([C@H](O)CC(N)=O)NC(=O)[C@H]([C@H](O)[C@@H](O)c5ccc(O)c(OS(=O)(=O)O)c5)NC(=O)[C@@H]5C[C@@H](O)CN5C(=O)[C@H]([C@@H](C)O)NC4=O)cc3)no2)cc1 [Micafungin] (X1-[Orn(4R-OH,5R-OH)]T[Hyp][hTyr(3S-OH,4S-OH,3'-OSO3H)][Gln(3R-OH)][Pro(3S-OH,4S-Me)]; lactam 1-C)",% Growth Inhibition,P. aeruginosa [1]; [7],54%
CCN1CCN(C(=O)N[C@@H](C(=O)N[C@@H]2C(=O)N3[C@@H]2SC(C)(C)[C@@H]3C(=O)O)c2ccccc2)C(=O)C1=O [Piperacillin],effect on virulence factor expression in screen,[2]; [8],further enhance the expression of virulence factors
same,EC50,phzF1-lacZ; [9],8.4 µM
same,IC50,[3]; [10],6.4 µM
CC/C(=C(\c1ccccc1)c1ccc(OCCN(C)C)cc1)c1ccccc1 [Tamoxifen],% Growth Inhibition,P. aeruginosa [1],57%
COc1cc(Cc2cnc(N)nc2N)cc(OC)c1OC [Trimethoprim],% Growth Inhibition,P. aeruginosa [1],73%
CN1CCc2cccc3c2[C@H]1Cc1ccc(O)c(O)c1-3 [apomorphine],effect on virulence factor expression in screen,[2],A similar effect
CO/N=C(\C(=O)N[C@@H]1C(=O)N2C(C(=O)O)=C(C[N+]3(C)CCCC3)CS[C@H]12)c1csc(N)n1 [cefepime],IC50,[3]; [10],4.6 µM
C/C=C/C1=C(C(=O)O)N2C(=O)[C@@H](NC(=O)[C@H](N)c3ccc(O)cc3)[C@H]2SC1 [cefprozil],EC50,"phzF1-lacZ; Pseudomonas aeruginosa, read-out: EC50, concentration at which induction of phzF1-lacZ was half-maximal",58 µM
same,IC50,"[3]; Pseudomonas aeruginosa, PHZF1LACZSTRAIN, read-out: growth-inhibitory IC50",362 µM
CC(C)(O/N=C(\C(=O)N[C@@H]1C(=O)N2C(C(=O)O)=C(C[n+]3ccccc3)CS[C@H]12)c1csc(N)n1)C(=O)O [ceftazidime],EC50,phzF1-lacZ; [9],21 µM
same,IC50,[3]; [10],53 µM
N=C(N)NC(=O)Cc1c(Cl)cccc1Cl [guanfacine],growth inhibition (growth curve versus DMSO control),P. aeruginosa [4],not growth-inhibitory
same,reduction of reporter expression across seven reporter strains,[5],2-9 fold
same,IC50,phzB2-lacZ,19 µM
same,reduction in the levels of pyocyanin,pyocyanin biosynthesis,1.5 fold
same,"levels of HHQ, PQS and several other quinolines",HHQ and PQS production,decreased levels
same,fold less PQS relative to DMSO-treated control,HHQ and PQS production; 40 μM guanfacine,4.5 fold
same,suppression of pelB expression,pelB-lacZ; 80 μM guanfacine,Nearly complete suppression
same,IC50,"pelB-lacZ; Pseudomonas aeruginosa, pelB-lacZ",5.8 µM
same,suppression of pelG expression,pelG-lacZ; 80 μM guanfacine,Nearly complete suppression
same,IC50,"pelG-lacZ; Pseudomonas aeruginosa, pelG-lacZ",3.1 µM
same,effect on HHQ and pyocyanin production in pmrB::Tn cultures,[6],no further effect
same,effect on virulence factor expression in screen,[2]; [8],A similar effect
CC(C)Cc1ccc(C(C)C(=O)O)cc1 (stereo not drawn) [ibuprofen],effect on virulence factor expression in screen,[2]; [8],down-regulated virulence factor expression
CC(C(=O)O)c1cccc(C(=O)c2ccccc2)c1 (stereo not drawn) [ketoprofen],effect on virulence factor expression in screen,[2],down-regulated virulence factor expression
COc1ccc2cc([C@H](C)C(=O)O)ccc2c1 [naproxen],effect on virulence factor expression in screen,[2],down-regulated virulence factor expression
Cc1ccc(C(=O)c2cc(O)c(O)c([N+](=O)[O-])c2)cc1 [tolcapone],effect on virulence factor expression in screen,[2]; [8],A similar effect
Colistin,% Growth Inhibition,P. aeruginosa [1]; [7],96%
